US20080317723A1, “LYMPHATIC ENDOTHELIAL CELLS MATERIALS AND METHODS” (VEGENICS LIMITED, priority 2001, published 2008)

B1: VEGF-C156S: VEGFR-3 specific mutant form of VEGF-C, cysteine 156 changed into serine; recombinant human (Thr103 to Ile225) (protein, UniProt P49767 103-225, looked up, variant C156S)
chain: TEETIKFAAAHYNTEILKSIDNEWRKTQCMPREVCIDVGKEFGVATNTFFKPPSVSVYRCGGCCNSEGLQCMNTSTSYLSKTLFEITVPLSQGPKPVTISFANHTSCRCMSKLDVYRQVHSII

Experiments:
Format in all cases: cell-based, human
[1] = tested on: HMVE cells; test: Serum starvation-induced apoptosis, cytoplasmic histone-associated DNA fragments (ELISA), non-sorted HMVE cells; settings: non-sorted microvascular endothelial cells, serum-free 24 h, FIG. 2A
Excerpt: FIG. 2A-FIG. 2B. VEGFR-2 and VEGFR-3, but not VEGFR-1 activating ligands inhibit apoptosis of serum-deprived HMVE cells. Measurement of the cytoplasmic histone-associated DNA fragments (mono- and oligonucleosomes) in serum-starved HMVE cells consisting of two cell populations of blood vascular and lymphatic endothelial cells (FIG. 2A) or in the isolated cell populations after magnetic cell sorting using VEGFR-3 antibodies (FIG. 2B). The enrichment factor of cytoplasmic oligonucleosomes in the apoptotic cells grown for 24 h in serum-free medium (BSA) was chosen as 100 (%). Data represent mean values from three independent experiments (mean±s.d.). […] Analysis of endothelial cell apoptosis. For the apoptosis assay, 70,000 cells per well were seeded into 24-well plates. Treatments were done in duplicates and apoptosis was detected by measuring cytoplasmic histone-associated DNA fragments using the death detection ELISA PLUS kit (Roche, Indianapolis, Ind.). […] Annexin-V-FLUOS (Roche, Indianapolis, Ind.) was used to detect phosphatidylserine on the apoptotic cells by fluorescence microscopy according to the instructions of the manufacturer. The simultaneous staining with propidium iodide (1 μg/ml) was used for discriminating possible necrotic cells.

[2] = tested on: HMVE cells; test: Annexin-V staining of serum-starved HMVE cells with podoplanin co-staining; settings: 72 hours serum-free medium; podoplanin positive vs negative cells, FIG. 3
Method: FIG. 3. Quantitation of the Annexin-V positive cells (% of adherent cells) in the podoplanin positive and negative cell populations after 72 hours of serum starvation. Data represent mean values from five counted areas (×400) (mean±s.d.).
Analysis of endothelial cell apoptosis. For the apoptosis assay, 70,000 cells per well were seeded into 24-well plates. Treatments were done in duplicates and apoptosis was detected by measuring cytoplasmic histone-associated DNA fragments using the death detection ELISA PLUS kit (Roche, Indianapolis, Ind.). The following ranges of growth factor concentrations were tested: bFGF 10-20 ng/ml, PlGF-1 50-1000 ng/ml, VEGF 10-50 ng/ml, VEGF-C 50-1000 ng/ml, VEGF-D 50-1000 ng/ml, VEGF-C156S 50-1000 ng/ml and VEGF-E 50-1000 ng/ml. Annexin-V-FLUOS (Roche, Indianapolis, Ind.) was used to detect phosphatidylserine on the apoptotic cells by fluorescence microscopy according to the instructions of the manufacturer. The simultaneous staining with propidium iodide (1 μg/ml) was used for discriminating possible necrotic cells.
Annexin-V staining of the HMVE cells was performed after 72 hours of culture in serum-free medium alone (BSA) or with stimulation of VEGF or VEGF-C. Simultaneous staining using antibodies against podoplanin was used to distinguish lymphatic and blood vascular endothelial cells. […]

[3] = tested on: Akt; test: Akt phosphorylation in HMVE cells, Western blot; settings: for Akt phosphorylation at Ser473 on growth factor stimulation: HMVE cells; for time of maximal (peak) Akt phosphorylation after exposure: HMVEC, FIG. 4
Method: (§1) Western blot analysis. Endothelial cells were cultured on 35 mm dishes to near confluence, starved for 24 h in serum free medium and stimulated as indicated. Wortmannin ([…]), LY294002 ([…]), PD98059 (10-25 μM) or GF109203X (2.5-5 μM) were added 1-3 h before stimulation, where indicated. DMSO, into which the inhibitors were dissolved, was used as a control. After the stimulation, the cells were lysed in lysis buffer (50 mM HEPES, pH 7.5, 150 mM NaCl, 10 mM EDTA, 100 mM NaF, 1% TritonX-100 supplemented with 2 mM Na3VO4, 0.5 mM PMSF, 100 U/ml approtinin and 10 μg/ml leupeptin). Clarified lysates were separated by SDS-PAGE, transferred to nitrocellulose and immunoblotted using the phosphospecific antibodies for Akt-Ser473, Akt-Thr308, p42/44 MAPK-Thr202/Tyr204 or CREB-Ser133. The bound antibodies were detected using horseradish peroxidase conjugated secondary antibodies and enhanced chemiluminescence detection system. The blots were stripped and reprobed with antibodies against Akt, MAPK or CREB for quantification by reading the optical densities of the signals with Multi-Analyst 2.0.1 program (Bio-Rad).
As discussed in the background, a major signal transduction pathway by which growth factor receptors can promote cell survival employs the PI-3-kinase and its downstream target, the serine-threonine kinase Akt. The effect of the different VEGFs on Akt was analyzed by assessing Akt phosphorylation in serine 473 and threonine 308 using phosphospecific antibodies.

[4] = tested on: p42/p44 MAPK; test: p42/p44 MAPK Thr202/Tyr204 phosphorylation in HMVE cells, Western blot
Method: as §1
The p42/p44 MAPK activation was detected by Western blotting using phospho-Thr202/Tyr204-MAPK specific antibodies and CREB phosphorylation using phospho-Ser133 specific antibodies. The growth factor concentrations used were: VEGF 10 ng/ml, VEGF-C 100 ng/ml and VEGF-C156S 500 ng/ml. […] Effects of inhibition of protein kinase C by GF109203X, MEK1 by PD98059 and PI-3 kinase by LY294002 on p42/p44 MAPK Thr202/Tyr204 phosphorylation, CREB Ser133 phosphorylation and Akt Ser473 phosphorylation in HMVE cells. The growth factor concentrations used were: VEGF 1 ng/ml, VEGF-C 10 ng/ml and VEGF-C156S 500 ng/ml

Molecule	protection from starvation induced DNA degradation (cytoplasmic histone-associated DNA fragments) [1]	Annexin-V positive cells / survival [2]	Akt phosphorylation at Ser473 on growth factor stimulation [3]	time of maximal (peak) Akt phosphorylation after exposure [3] [min]	duration of MAPK activation, in words [4]	p42/p44 MAPK activation (phosphorylation) [4]
VEGF	able to protect microvascular endothelial cells from starvation induced DNA degradation	strongly decreased the number of cells displaying Annexin-V positivity	phosphorylated at Ser473	20 to 30	more transient than that induced by VEGF-C	significantly stronger
B1	able to protect microvascular endothelial cells from starvation induced DNA degradation	increased the survival of mainly the lymphatic endothelial cells	phosphorylated at Ser473	30 to 40	–	MAPK activation in HMVE cells was detected
